The record followed here is patent publication US4241074A, “Prostaglandin analogues” (Beecham Group Limited, priority 1978, dated 1980).

The test system of assay [1] is indomethacin induced gastric ulceration. Put plainly: inhibition of indomethacin induced gastric ulceration in the rat. It counts as in vivo. From the text: The compounds were examined for their ability to inhibit indomethacin induced gastric ulceration in the rat and the activities are shown in Table 2.
In assay [2] the test system is 5-hydroxytryptamine induced bronchoconstriction. Put plainly: inhibition of 5-hydroxytryptamine induced bronchoconstriction in the anaesthetised, artificially respired guinea-pig (Konzett-Rossler preparation). It is filed as in vivo. The following applies: Cavia porcellus, iv, vs 5-hydroxytryptamine, read-out: Konzett-Rossler Test Ed50. From the text: (a) The Compounds were examined for their ability to inhibit 5-hydroxytryptamine induced bronchoconstriction in the anaesthetised, artificially respired guinea-pig (Konzett-Rossler preparation).

The subject of assay [3] is broncho-constriction induced by an histamine aerosol. As to the kind of experiment: protection of conscious guinea-pigs against broncho-constriction induced by an histamine aerosol (Herxheimer test). It counts as in vivo, guinea-pig. Here is the method: (b) The Compounds were also examined for their ability to protect conscious guinea-pigs against broncho-constriction induced by an histamine aerosol (Herxheimer test). The Compounds were administered by aerosol.
The aerosol was produced in the following manner.
Water soluble Compounds were dissolved in normal saline at a concentration of […]. Water insoluble Compounds were dissolved in ethanol at a concentration of 10 μg/ml. These solutions were then diluted to the test concentrations with normal saline.

A word on the ED50: it is the midpoint of the dose-response relation. On to `CCCCCCC(C)(O)CCN1C(=O)N(C)C(=O)C1CCCCCCCC(C)=O` (stereo not shown) [Compound 1, 1-(3'-hydroxy-3'-methyl-n-nonyl)-3-methyl-5-(8"-oxo-n-nonyl) hydantoin], for which the “% Inhibition of Damage” value in assay [1] (25 mg/kg p.o.) came to 64%; in assay [1] (50 mg/kg p.o.), 74%; in assay [1] (100 mg/kg p.o.), 100%. The ED50 in assay [2] is 1.4 µg/kg. `CCCCCCC(C)(O)CCN1C(=S)N(C)C(=O)C1CCCCCCCC(C)=O` (stereo not shown) [Compound 2, 1-(3'-hydroxy-3'-methyl-n-nonyl)-3-methyl-5-(8"-oxo-n-nonyl)-2-thiohydantoin]: the “% Inhibition of Damage” value in assay [1] (100 mg/kg p.o.) was 100%. With `CCCCCCC(C)(O)CCN1CN(C)C(=O)C1CCCCCCCC(C)=O` (stereo not shown) [Compound 3, 1-(3'-hydroxy-3'-methyl-n-nonyl)-3-methyl-5-(8"-oxo-n-nonyl)-4-imidazolidone], the “% Inhibition of Damage” value in assay [1] (100 mg/kg p.o.) is 65%. In the case of `CCCCCCC(C)(O)CCN1C(=O)N(C)C(=O)C1CC#CCCCCC(C)=O` (stereo not shown) [Compound 6, 1-(3'-hydroxy-3'-methyl-n-nonyl)-3-methyl-5-(8"-oxo-non-2-ynyl) hydantoin], the “% Increase in pre-convulsive coughing time at a dose of 10 μg/ml” value (from here on “% Increase”) in assay [3] (after 2 mins.) turned out to be 29%; in assay [3] (after 5 mins.) it was 15%. Consider `CCCCCCC(C)(O)CCN1C(=O)NC(=O)C1CCCCCCCC(C)=O` (stereo not shown) [Compound 8, 1-(3'-hydroxy-3'-methyl-n-nonyl)-5-(8"-oxo-n-nonyl) hydantoin], for which the “% Increase” value in assay [3] (after 2 mins.) worked out at 81%. As for `CCCCCCC(C)(O)CCN1C(=O)N(C)C(=O)C1CCCCCCC(C)=O` (stereo not shown) [Compound 9, 1-(3'-hydroxy-3'-methyl-n-nonyl)-3-methyl-5-(7"-oxo-n-octyl) hydantoin], the ED50 in assay [2] came to 67.5 µg/kg.

As to `CC(=O)CCCCCCCC1C(=O)N(C)C(=O)N1CCC(C)(O)C1CCCCC1` (stereo not shown) [Compound 11, 1-(3'-hydroxy-3'-cyclohexyl-n-butyl)-3-methyl-5-(8"-oxo-n-nonyl) hydantoin], the “% Increase” value in assay [3] (after 2 mins.) turned out to be 140%; in assay [3] (after 5 mins.) it was 23%. The ED50 in assay [2] came out at 1 µg/kg.
